According to ChEMBL document CHEMBL3727356, “Therapeutic compounds and compositions” (2014):

Experiments:
[1] = target: Pyruvate kinase PKLR (Homo sapiens, UniProt P30613, R510Q); assay: Activation of PKR R510Q mutant (unknown origin) incubated for 60 mins in presence of ADP, PEP and NADH by Spectraax microplate reader based assay
[2] = target: Pyruvate kinase PKLR (Homo sapiens, UniProt P30613, R532W); assay: Activation of PKR R532W mutant (unknown origin) incubated for 60 mins in presence of ADP, PEP and NADH by Spectraax microplate reader based assay
Pyruvate kinase PKLR (Homo sapiens, UniProt P30613, R532W), sequence (P30613 whole entry R532W): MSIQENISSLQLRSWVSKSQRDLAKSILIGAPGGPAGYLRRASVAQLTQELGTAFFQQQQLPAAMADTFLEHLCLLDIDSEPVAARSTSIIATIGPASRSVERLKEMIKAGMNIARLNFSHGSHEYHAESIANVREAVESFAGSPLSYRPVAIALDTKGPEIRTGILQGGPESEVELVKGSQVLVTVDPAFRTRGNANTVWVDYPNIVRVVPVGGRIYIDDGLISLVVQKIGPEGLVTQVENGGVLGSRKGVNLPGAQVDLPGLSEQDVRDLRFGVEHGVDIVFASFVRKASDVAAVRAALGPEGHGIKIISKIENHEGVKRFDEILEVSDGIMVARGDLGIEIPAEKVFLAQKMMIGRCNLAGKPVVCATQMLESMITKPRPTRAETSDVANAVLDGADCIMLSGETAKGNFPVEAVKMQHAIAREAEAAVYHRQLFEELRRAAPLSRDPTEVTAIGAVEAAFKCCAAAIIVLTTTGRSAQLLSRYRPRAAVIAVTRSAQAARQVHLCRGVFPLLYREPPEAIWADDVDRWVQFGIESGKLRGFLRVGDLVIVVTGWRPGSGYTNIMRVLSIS

[3] = target: T1, Pyruvate kinase PKLR (Homo sapiens, UniProt P30613); assay: Activation of wild type PKR (unknown origin) incubated for 60 mins in presence of ADP, PEP and NADH by Spectraax microplate reader based assay
T1 sequence (P30613 whole entry): as the sequence (P30613 whole entry R532W) above, with W532R counted along it

[4] = target: T1, Pyruvate kinase PKLR; assay: Activation of wild type PKR (unknown origin) by cell based assay

Pyruvate kinase PKLR (Homo sapiens, UniProt P30613, R510Q), sequence (P30613 whole entry R510Q): as the sequence (P30613 whole entry R532W) above, with R510Q, W532R counted along it

| AC50 [1] [nM] | AC50 [2] [nM] | AC50 [3] [nM] | AC50 [4] [nM] | SMILES |
| --- | --- | --- | --- | --- |
| > 10000 |  |  |  | O=C(c1ccc(NS(=O)(=O)c2cccc3c2OC(F)(F)O3)cc1)N1CCC(O)(c2ccccc2Cl)CC1 |
| > 10000 |  |  |  | O=C(c1ccc(NS(=O)(=O)c2cccc3scnc23)cc1)N1CCC(O)(c2ncc(Cl)s2)CC1 |
| > 10000 |  |  |  | CC(C)CC1(OP(=O)(O)O)CCN(C(=O)c2ccc(NS(=O)(=O)c3cccc4nccnc34)cc2)CC1 |
| < 100 | < 100 | < 100 |  | O=C(c1ccc(NS(=O)(=O)c2cccc3cccnc23)cc1)N1CCC(O)(c2ccccc2OC(F)(F)F)CC1 |
| > 10000 |  |  |  | CCn1cc(CC2(O)CCN(C(=O)c3ccc(NS(=O)(=O)c4cccc5scnc45)cc3)CC2)cn1 |
| > 10000 | > 10000 | > 10000 |  | O=C(c1ccc(NS(=O)(=O)n2ccc3cccnc32)cc1)N1CCC(O)(c2ccccc2Cl)CC1 |
| > 10000 | > 10000 | > 10000 |  | O=C(c1ccc(NS(=O)(=O)c2cccc3cccnc23)cc1)N1CCC(C(=O)O)(c2ccccc2)CC1 |
| < 100 | < 100 | < 100 |  | CC(F)(F)CCC1(O)CCN(C(=O)c2ccc(NS(=O)(=O)c3cc(F)cc4sc(N)nc34)cc2)CC1 |
| > 10000 |  |  |  | O=C1NCCC1CC1(O)CCN(C(=O)c2ccc(NS(=O)(=O)c3cccc4scnc34)cc2)CC1 (stereo unspecified) |
| > 10000 | > 10000 | > 10000 |  | O=C(c1ccc(NS(=O)(=O)Cc2ccccn2)cc1)N1CCC(O)(c2ccccc2Cl)CC1 |
| > 10000 |  |  |  | O=C(c1ccc(NS(=O)(=O)c2c(F)ccc3ncsc23)cc1)N1CCC(O)(c2ccccc2Cl)CC1 |
| > 10000 |  |  |  | O=C(c1ccc(NS(=O)(=O)c2cccc3ncccc23)cc1)N1CCC(O)(c2ccccc2)CC1 |
| > 10000 |  |  |  | O=C(c1ccc(NS(=O)(=O)c2cccc3snnc23)cc1)N1CCC(O)(c2ccccc2Cl)CC1 |
| > 10000 |  |  |  | O=C(c1ccc(NS(=O)(=O)c2cccc3scnc23)cc1)N1CCC(O)(c2cn[nH]c2)CC1 |
| > 10000 |  |  |  | O=C(c1ccc(NS(=O)(=O)c2cccc3nsnc23)cc1)N1CCC(O)(c2ccccc2)CC1 |
| > 10000 |  |  |  | Cn1ccc(CC2(O)CCN(C(=O)c3ccc(NS(=O)(=O)c4cccc5nccnc45)cc3)CC2)n1 |
| > 10000 |  |  |  | CCS(=O)(=O)CC1(O)CCN(C(=O)c2ccc(NS(=O)(=O)c3cccc4scnc34)cc2)CC1 |
| > 10000 |  |  |  | Nc1nc(CC2(O)CCN(C(=O)c3ccc(NS(=O)(=O)c4cccc5scnc45)cc3)CC2)cs1 |
|  | < 100 | < 100 | < 100 | O=C(c1ccc(NS(=O)(=O)c2cccc3cccnc23)cc1)N1CCC(O)(c2ccccc2)CC1 |
|  | < 100 | < 100 | < 100 | O=C(c1ccc(NS(=O)(=O)c2ccc(F)c3cccnc23)cc1)N1CCC(O)(c2ccccc2Cl)CC1 |
|  | < 100 | < 100 | < 100 | O=C(c1ccc(NS(=O)(=O)c2cccc3scnc23)cc1)N1CCC(O)(CCCC(F)(F)F)CC1 |
|  | < 100 | < 100 | < 100 | CC(C)CC1(O)CCN(C(=O)c2ccc(NS(=O)(=O)c3cccc4c3OCO4)cc2)CC1 |
| > 10000 |  |  |  | COc1nc(C(=O)N2CCC(O)(c3ccccc3)CC2)ccc1NS(=O)(=O)c1cccc2cccnc12 |

| AC50 [1] [nM] | AC50 [2] [nM] | AC50 [3] [nM] | AC50 [4] [nM] | SMILES |
| --- | --- | --- | --- | --- |
| > 10000 |  |  |  | O=C(c1ccc(NS(=O)(=O)c2cccc(OC(F)(F)F)c2)cc1)N1CCC(O)(Cc2ccccc2)CC1 |
|  | < 100 | < 100 | < 100 | O=C(c1ccc(NS(=O)(=O)c2cccc3cc(F)cnc23)cc1)N1CCC(O)(c2ccccc2)CC1 |
|  | < 100 | < 100 | < 100 | O=C(c1ccc(NS(=O)(=O)c2cccc3cccnc23)cc1)N1CCC(O)(c2cccc(C(F)(F)F)n2)CC1 |
|  | < 100 | < 100 | < 100 | O=C(c1ccc(NS(=O)(=O)c2cccc3scnc23)cc1)N1CCC(O)(CCC=C(F)F)CC1 |
| > 10000 | > 10000 |  |  | CC(C)CC1(O)CCN(C(=O)c2ccc(NS(=O)(=O)c3cnc(O)c4cccnc34)cc2)CC1 |
|  | < 100 | < 100 | < 100 | O=C(c1ccc(NS(=O)(=O)c2cccc3cccnc23)cc1)N1CCC(O)(c2ncccc2Cl)CC1 |
| > 10000 |  |  |  | O=C1NCCC1CC1(O)CCN(C(=O)c2ccc(NS(=O)(=O)c3cccc4nccnc34)cc2)CC1 (stereo unspecified) |
|  | < 100 | < 100 | < 100 | Cc1cccc(CC2(O)CCN(C(=O)c3ccc(NS(=O)(=O)c4cccc5cccnc45)cc3)CC2)c1 |
|  | < 100 | < 100 | < 100 | O=C(c1ccc(NS(=O)(=O)c2cccc3cccnc23)cc1)N1CCC(O)(c2cccc(C(F)(F)F)c2)CC1 |
| > 10000 |  |  |  | O=C(c1ccc(N[S+]([O-])c2cccc3cccnc23)cc1)N1CCC(O)(c2ccccc2Cl)CC1 (stereo unspecified) |
|  | < 100 | < 100 | < 100 | O=C(c1ccc(NS(=O)(=O)c2cccc3cccnc23)c(F)c1)N1CCC(O)(Cc2ccccc2)CC1 |
| > 10000 |  |  |  | O=C(c1ccc(NS(=O)(=O)c2cccc3cccnc23)nc1)N1CCC(O)(c2ccccc2)CC1 |
|  | < 100 | < 100 | < 100 | O=C(c1ccc(NS(=O)(=O)c2cccc3cccnc23)cc1)N1CCC(CO)(Cc2ccccc2)CC1 |
|  | < 100 | < 100 | < 100 | N#Cc1cc(NS(=O)(=O)c2cccc3cccnc23)ccc1C(=O)N1CCC(O)(c2ccccc2Cl)CC1 |
|  | < 100 | < 100 | < 100 | O=C(c1ccc(NS(=O)(=O)c2cccc3scnc23)cc1)N1CCC(O)(c2cccc(F)c2F)CC1 |
|  | < 100 | < 100 | < 100 | O=C(c1ccc(NS(=O)(=O)c2cccc3scnc23)cc1)N1CCC(O)(CC2CCC2)CC1 |
|  | < 100 | < 100 | < 100 | O=C(c1ccc(NS(=O)(=O)c2cccc3cccnc23)cc1)N1CCC(O)(c2ccc(F)cc2)CC1 |
| > 10000 |  |  |  | COc1cccnc1C1(O)CCN(C(=O)c2ccc(NS(=O)(=O)c3cccc4cccnc34)cc2)CC1 |
|  | < 100 | < 100 | < 100 | O=C(c1ccc(NS(=O)(=O)c2cccc3nccnc23)cc1)N1CCC(O)(CCCC(F)F)CC1 |
|  | < 100 | < 100 | < 100 | O=C(c1ccc(NS(=O)(=O)c2cccc3cccnc23)cc1)N1CCC(O)(c2ccncc2)CC1 |
| > 10000 |  |  |  | O=C(c1ccc(NS(=O)(=O)c2cccc3cccnc23)c(F)c1F)N1CCC(O)(c2ccccc2)CC1 |
|  | < 100 | < 100 | < 100 | CC(C)CC1(O)CCN(C(=O)c2ccc(NS(=O)(=O)c3cccc4nccnc34)cc2OC(F)F)CC1 |
|  | < 100 | < 100 | < 100 | O=C(c1ccc(NS(=O)(=O)c2cccc3cccnc23)cc1)N1CCC(O)(Cc2cccc(F)c2F)CC1 |

| AC50 [1] [nM] | AC50 [2] [nM] | AC50 [3] [nM] | AC50 [4] [nM] | SMILES |
| --- | --- | --- | --- | --- |
| > 10000 |  |  |  | CC1(O)CCN(C(=O)c2ccc(NS(=O)(=O)c3cccc4cccnc34)cc2)CC1 |
| > 10000 | > 10000 |  |  | CC(C)CC1(O)CCN(C(=O)c2ccc(NS(=O)(=O)c3ccnc4scnc34)cc2)CC1 |
|  | < 100 | < 100 | < 100 | CC(F)(F)CCC1(O)CCN(C(=O)c2ccc(NS(=O)(=O)c3cccc4nc(N)cnc34)cc2)CC1 |
|  | < 100 | < 100 | < 100 | O=C(c1ccc(NS(=O)(=O)c2cccc3cccnc23)cc1Cl)N1CCC(O)(c2ccccc2Cl)CC1 |
|  | < 100 | < 100 | < 100 | CC(C)CC1(O)CCN(C(=O)c2ccc(NS(=O)(=O)c3cncc4cccnc34)cc2)CC1 |
| > 10000 | > 10000 |  |  | CS(=O)(=O)CCC1(O)CCN(C(=O)c2ccc(NS(=O)(=O)c3cccc4scnc34)cc2)CC1 |
| > 10000 |  |  |  | CC(C)CC1(O)CCN(C(=O)c2ccc(NS(=O)(=O)c3cccn4ccnc34)cc2)CC1 |
|  | < 100 | < 100 | < 100 | O=C(c1ccc(NS(=O)(=O)c2cccc3nccnc23)cc1)N1CCC(O)(c2ccccc2Cl)CC1 |
|  | < 100 | < 100 | < 100 | Cc1cc(C(=O)N2CCC(O)(c3cccc(F)c3F)CC2)ccc1NS(=O)(=O)c1cccc2nccnc12 |
|  | < 100 | < 100 | < 100 | O=C(c1ccc(NS(=O)(=O)c2cccc3scnc23)cc1)N1CCC(O)(c2ccccc2Cl)CC1 |
| > 10000 |  |  |  | CC(C)CC1(O)CCN(C(=O)c2ccc(NS(=O)(=O)c3c(F)ccc4ncsc34)cc2)CC1 |
|  | < 100 | < 100 | < 100 | CC(C)CC1(O)CCN(C(=O)c2ccc(NS(=O)(=O)c3ccc(F)c4cccnc34)cc2)CC1 |
| > 10000 |  |  |  | CS(=O)(=O)CCC1(O)CCN(C(=O)c2ccc(NS(=O)(=O)c3cccc4nccnc34)cc2)CC1 |
| > 10000 |  |  |  | CN1CCC(CC2(O)CCN(C(=O)c3ccc(NS(=O)(=O)c4cccc5scnc45)cc3)CC2)C1=O (stereo unspecified) |
| > 10000 |  |  |  | CCn1cc(CC2(O)CCN(C(=O)c3ccc(NS(=O)(=O)c4cccc5nccnc45)cc3)CC2)cn1 |
|  | < 100 | < 100 | < 100 | Cc1nc2c(S(=O)(=O)Nc3ccc(C(=O)N4CCC(O)(c5ccccc5Cl)CC4)cc3)cccc2o1 |
| < 100 |  | < 100 |  | O=C(c1ccc(NS(=O)(=O)c2cccc3c(O)ncnc23)cc1)N1CCC(O)(/C=C/CC(F)(F)F)CC1 |
|  | < 100 | < 100 | < 100 | O=C(c1ccc(NS(=O)(=O)c2cccc3cccnc23)c(Cl)c1)N1CCC(O)(c2ccccc2Cl)CC1 |
| > 10000 | > 10000 |  |  | Nc1nc2cc(S(=O)(=O)Nc3ccc(C(=O)N4CCC(O)(c5ccccc5Cl)CC4)cc3)c(F)cc2s1 |
| > 10000 | > 10000 |  |  | O=C(c1ccc(NS(=O)(=O)c2cccc3ccnnc23)cc1)N1CCC(O)(c2ccccc2Cl)CC1 |
| > 10000 |  |  |  | O=C(c1ccc(NS(=O)(=O)c2cccc3cccnc23)cn1)N1CCC(O)(c2ccccc2)CC1 |
